“Also recorded” adds a separate entry of the source.
How the values were obtained:
MCF10A/NLS-DAO cells = assay: Western blot of EMT markers in MCF10A/NLS-DAO cells; format: cell-based; conditions: D-Ala 10 nM, activation of nuclear ROS
Description: FIG. 1B is a graph of experimental data showing the quantification of the relative levels of nuclear ROS shown as the ratio of fluorescence between the oxidized and reduced forms. FIG. 1C is a Western blot analysis showing increased EMT markers after activation of nuclear ROS with D-Ala (10 nM). FIG. 1D is a graph of experimental data showing proliferation curves comparing naïve (MCF10A) and D-Ala (10 nM) exposed MCF10A/NLS-DAO cells. Results are averages of at least 5 biologic replicates with (*) representing p<0.05.
Nuclear ROS are sufficient and required to activate EMT and metastasis of breast cancer cells. ROS levels were measured in the nuclei of different breast cancer cell lines displaying vastly different tumorigenicity and metastatic potential using novel NLS-Orp1roGFP2 biosensors. […] Also, transformation of MCF10A by v-Src promoted a marked increase in nuclear ROS levels (FIGS. 1A & B). […] To directly link nuclear ROS with aggressive cancer behavior, a nucleus-targeted system (NLS-D-amino acid oxidase, NLS-DAO) was engineered that allows to generate ROS21 directly in the nucleus and expressed it into MCF10A cells to recreate, using a non-transformed cell background, this distinctive feature of metastatic breast cancer cell lines. […]

[1] = treatment 3-hours post-ischemia; cited from earlier work
[2] = test system: models of neurodegeneration; conditions: very low hermetic doses; cited from earlier work
wildtype mice = conditions: chronic, extraordinarily low dose; cited from earlier work
[3] = pharmacokinetics of DNP in rats; format: in vivo
[4] = test system: BT474 NLS Orp roGFP cells; assay: nuclear ROS by NLS-Orp1roGFP2 biosensor in BT474 cells; format: cell-based, human; conditions: BT474, varying concentrations of DNP, 24 hours
Description: (§1) FIGS. 3A-3C show how DNP suppresses nuclear ROS in basal BT breast cancer cell lines.
(§2) Nuclear ROS are sufficient and required to activate EMT and metastasis of breast cancer cells. ROS levels were measured in the nuclei of different breast cancer cell lines displaying vastly different tumorigenicity and metastatic potential using novel NLS-Orp1roGFP2 biosensors. […] Also, transformation of MCF10A by v-Src promoted a marked increase in nuclear ROS levels (FIGS. 1A & B). […] To directly link nuclear ROS with aggressive cancer behavior, a nucleus-targeted system (NLS-D-amino acid oxidase, NLS-DAO) was engineered that allows to generate ROS21 directly in the nucleus and expressed it into MCF10A cells to recreate, using a non-transformed cell background, this distinctive feature of metastatic breast cancer cell lines. […] Next, it was tested whether nuclear ROS contributed to treatment failure by promoting resistance to first line chemotherapeutic drugs, i.e. doxorubicin. It was also tested whether removing suppressing ROS specifically in the nucleus restored sensitivity to doxorubicin. The strategy of removing ROS from the nucleus is novel, targets a feature that seems unique to cancer cells and preserves redox signaling that happen in large part in the cytosol22. […]

ion channels = assay: inhibition of ion channels
Source text: (§3) In one embodiment, the compositions and methods of the disclosure relate to targeting oxidative stress upstream at the mitochondria that may be causative for many disorders, including, but not limited to, cancer, pain, and/or pain related conditions. There have been a variety of attempts to lower cellular stress, such as administering anti-oxidants, however these drugs have limited tissue penetration into the brain and lower ROSs after they have been formed. […] While not being bound to theory, it is postulated that DNP modulates the mitochondrial membrane potential having a significant impact at preventing ROS formation in isolated mitochondria and in the treated wildtype mice. DNP treatment 3-hours post-ischemia reduced cerebral infarct volume 40% by protecting the penumbra or “threaten tissue” and could provide similar benefits after a blast to protect inner hair cells from eminent cell death. DNP comes with the benefits of known risks as it was used 80-years ago for weight loss at high doses (˜300 mg) in over 100,000 people, however shown recently in models of neurodegeneration at very low hermetic doses to improve cognition and learning. The pharmacology, which is pleiotropic, appears to provide broad neuroprotection by lowering ROS/mTOR and increasing protective factors such as CAMP, CREB, and BDNF, could be useful for treating hearing loss.

BT20 NLS Orp roGFP cells = assay: nuclear ROS by NLS-Orp1roGFP2 biosensor in BT20 cells; format: cell-based, human; conditions: BT20, varying concentrations of DNP, 24 hours
Description: as §1, §2

[5] = at the doses proposed
Description: The hypothesis that mitigating mitochondrial dysfunction via scavenging ROS prevents chromatin changes that promote treatment resistance is tested using DNP, a compound in development with uncoupling activity already in Phase I trials for Huntington's Disease. DNP works largely by reducing the mitochondrial electrochemical potential reducing the output of ROS.

Caco-2 = assay: Caco-2; format: in vitro ADME
Source text: as §3

28-day toxicity studies = format: in vivo; conditions: low doses
Source text: as §3

CYP = assay: inhibition of CYP; format: in vitro ADME
Source text: as §3

A2780, M248, MES-SA, MX2 = assay: chromatin folding by PWS microscopy in cell line models; format: cell-based; conditions: for chromatin folding (structural alterations): FIG. 5A, five cell line models
Source text: FIG. 5A is a graph showing structural alterations due to taxol treatment (Paclitaxel or Docetaxel) in contrast to digoxin for five cell line models (A2780, M248, MES-SA, MX2). Chemotherapeutic intervention increases while CPT agent (digoxin) decreases chromatin folding. Error bars: S.E. of 5 different cell lines. FIGS. 5B-5C are diagrams showing intercellular (FIG. 5B) and intra-network (FIG. 5C) transcriptional heterogeneity increases in cells treated with chemotherapy and decreases in cells treated with CPTs for critical biological processes: (1) cell cycle, (2) apoptosis, (3) proliferation, (4) transcription, (5) signaling, (6) differentiation, (7) glycolysis, (8) translation, (9) ion transport, (10) metabolism, (11) oxidation/reduction, (12) stress response, and (13) nucleosome assembly. Circle size: the number of genes within a network/process. Color: % change in transcription heterogeneity compared to controls. […] Digoxin reduces chromatin heterogeneity. Arrow: nuclei.
Chromatin is a complex arrangement of DNA wrapped around structural and regulatory proteins that control the expression of genes directly involved in cellular function and phenotype. Local physicochemical changes broadly affect chromatin folding and alter gene expression patterns across the genome. In a non-limiting example, decoding the chromatin folding code and understanding how different agents affect folding dynamics at the nanoscale can be helpful to develop new diagnostic tools. The resolution of optical microscopy is limited by diffraction to >200 nm. Recently, a major breakthrough has been made in the emergence of super-resolution fluorescence microscopy that enabled development of a suite of label-free nanoscale imaging technologies including Partial Wave Spectroscopic (PWS) Microscopy (see, for example, FIG. 4). The main principle of PWS is a previously overlooked phenomenon that while sub-diffractional structures are not resolvable, they are still detectable through the analysis of interference of elastically scattered light. PWS can measure the statistics of macromolecular density distribution within live or fixed cells with sensitivity in the 20-200 nm length scales, which is ideally suited for the characterization of chromatin topology. It was by using PWS (and corroborated by electron microscopy) that heterogenization of chromatin folding was discovered as one of the earliest events in carcinogenesis across multiple cancer types. Consequently, PWS was turned into a robust diagnostics technology (nanocytology) and is now in clinical trials for early screening or prognostication of lung, colon, and prostate cancers.

[6] = test system: v-Src transformed luciferase-expressing MCF10A xenografts; assay: mammary xenograft of v-Src transformed luciferase-expressing MCF10A; format: in vivo, NOD/SCID mice; conditions: doxorubicin combined with NLS-catalase, 2 months of combined therapies, assessed at month 7
Description: (§4) FIGS. 2A-2B show heightened levels of nuclear ROS in persister chemotherapy-resistance cancer cells. FIG. 2A is a collection of images and graphs showing experimental data generated using NLS-Orp1roGFP2 biosensor to measure ROS in the nucleus of breast cancer cell lines. PY230 murine mammary tumor cells expressing NLS-Orp1roGFP2 were treated with doxorubicin (DXR, 250 nM) for the indicated amounts of times in plots of proliferation as well as fluorescence ratios indicate that persister cells have high levels of nuclear ROS and proliferate in the presence of chemotherapy mimicking clinical chemotherapy resistance where most cells initially die leaving persister ones that rapidly proliferate unabated by treatment. Induction of NLS-catalase, that removes ROS from the nucleus, resensitized persister cells to the killing effects of DXR. […]
Results in FIG. 2A, closely recapitulate the reality of most clinical cancer treatments that are effective at first eliminating the bulk tumor but that are become ineffective when the disease recur. […] Three months after implantation, metastases were clearly detected by luciferin-induced bioluminescence in the chest and head of most mice FIG. 2B. […]

[7] = test system: PY230 murine mammary tumor cells; assay: proliferation of PY230 cells under doxorubicin; format: cell-based; conditions: DXR 250 nM, within a few hours from application
Description: as §4, with “DXR. FIG. 2B is a collection of images showing mammary xenografts of luciferase-labeled transformed MCF10A constitutively expressing NLS-catalase under an inducible promoter rapidly grow and metastasize within 3 months of implantation.” for “DXR.”
Nuclear ROS are sufficient and required to activate EMT and metastasis of breast cancer cells. ROS levels were measured in the nuclei of different breast cancer cell lines displaying vastly different tumorigenicity and metastatic potential using novel NLS-Orp1roGFP2 biosensors. […]

C[C@@H](N)C(=O)O [D-Ala]
EMT markers (MCF10A/NLS-DAO cells): increased

O=[N+]([O-])c1ccc(O)c([N+](=O)[O-])c1 [DNP, 2,4-dinitrophenol]
reduction of cerebral infarct volume [1]: 40%
cognition and learning [2]: improve
lifespan versus untreated mice (wildtype mice): living longer than untreated mice
distribution [3]: good
oral bioavailability [3]: orally bioavailable
half-life ([3]; rat, plasma): ~6 h
levels of nuclear ROS (ox/red Orp1roGFP2 ratio) [4]: strongly suppresses; also recorded: clear concentration dependence of nROS reduction
inhibition of ion channels (ion channels): no inhibition
levels of nuclear ROS (ox/red Orp1roGFP2 ratio) (BT20 NLS Orp roGFP cells): strongly suppresses; also recorded: clear concentration dependence of nROS reduction
safety [5]: safe
inhibition, Caco-2 (Caco-2): no inhibition
Safety Index (28-day toxicity studies; 28-day toxicity studies): ≥ 10 ×
toxicity (28-day toxicity studies; 28-day): not toxic
inhibition of CYP (CYP): no inhibition

CC(=O)O[C@@]12CO[C@@H]1C[C@H](O)[C@@]1(C)C(=O)[C@H](O)C3=C(C)[C@@H](OC(=O)[C@H](O)[C@@H](NC(=O)OC(C)(C)C)c4ccccc4)C[C@@](O)([C@@H](OC(=O)c4ccccc4)[C@H]21)C3(C)C [Docetaxel]
chromatin folding (structural alterations) (A2780, M248, MES-SA, MX2): increases

COc1cccc2c1C(=O)c1c(O)c3c(c(O)c1C2=O)C[C@@](O)(C(=O)CO)C[C@@H]3O[C@H]1C[C@H](N)[C@H](O)[C@H](C)O1 [doxorubicin]
metastatic disease and primary tumor (bioluminescence) [6]: complete remission of metastatic disease as well as significant regression of primary tumor
effect on cell population (proliferation) [7]: eliminated the bulk of cells

C[C@H]1O[C@@H](O[C@H]2[C@@H](O)C[C@H](O[C@H]3[C@@H](O)C[C@H](O[C@H]4CC[C@@]5(C)[C@H](CC[C@@H]6[C@@H]5C[C@@H](O)[C@]5(C)[C@@H](C7=CC(=O)OC7)CC[C@]65O)C4)O[C@@H]3C)O[C@@H]2C)C[C@H](O)[C@@H]1O [digoxin]
chromatin folding (structural alterations) (A2780, M248, MES-SA, MX2): decreases
chromatin heterogeneity, live cell PWS (A2780, M248, MES-SA, MX2; FIG. 5D): reduces

CC(=O)O[C@H]1C(=O)[C@@]2(C)[C@H]([C@H](OC(=O)c3ccccc3)[C@]3(O)C[C@H](OC(=O)[C@H](O)[C@@H](NC(=O)c4ccccc4)c4ccccc4)C(C)=C1C3(C)C)[C@]1(OC(C)=O)CO[C@@H]1C[C@@H]2O [Paclitaxel]
chromatin folding (structural alterations) (A2780, M248, MES-SA, MX2): increases

From patent publication US20260108476A1, “2,4 DNP and Prodrugs Thereof for Treatment of Cancer” (priority 2021, published 2026)
